Results: patent publication EP0394553A2, “Use of fluorine containing pyridone carboxylic acid derivatives for preparing a medicament for the treatment of HIV infections” (DAIICHI PHARMACEUTICAL CO., LTD., priority 1989, dated 1990)
Read-outs that look alike come from different tables or passages of the source.

Experiments:
[1] = test system: HIV (LAV 1); experiment: microbe, parasite or virus in culture; conditions: for Viable cell count / Viral antigen-positive cell percentage: 10 mcg/ml; for viability at 1 µg/mL / viability at 2.5 µg/mL / viability at 5 µg/mL / viability at 10 µg/mL: Human immunodeficiency virus 1, CCRF-CEM
Method: Human T cell-derived, T4 antigen-positive CEM cells (provided by the Institut Pasteur, France) were used as host cells of HIV. Cell culture was carried out in a carbon dioxide-containing atmosphere in an incubator maintained at 37°C according to a conventional method [cf. […] The culture supernatant (5×10⁶ TCID₅₀/ml) obtained by subjecting CEM cells to HIV (LAV 1) infection and stored at -70°C was used as the HIV source.
The medium for cell culture (10 ml) placed in a plastic culture flask (25 cm²) was inoculated with CEM cells at a cell density of 2.5×10⁵ cells/ml. After 3 days of incubation, the culture was transferred to a 15-ml centrifuge tube and subjected to centrifugation at 1,000 revolutions per minute for 5 minutes for sedimentation of cells and removal of the culture medium.
The stock viral suspension was added to the host cells thus prepared to an MOI of 0.05 and the mixture was maintained at 37°C for 90 minutes with stirring at 30-minute intervals for viral adsorption. The medium was added to HIV-infected cells to a cell density of 5.0×10⁵ cells/ml to give an HIV-infected cell suspension.
A mixture (1.0 ml) of the three constituents mentioned below was added to each well of a 24-well plastic culture plate and the test substance final concentration was adjusted to 10 mcg/ml, 5 mcg/ml, 2.5 mcg/ml or 1 mcg/ml. The "no addition" wells (0 mcg/ml) served as controls.
After 4 days of incubation following viral infection, the cells in each well on the 24-well culture plate were suspended uniformly by pipetting and a 0.5-ml portion of the suspension was separated. A 2.0-ml portion of test substance-free fresh medium was added to the remaining 0.5-ml portion of the cell suspension, followed by incubation.
Seven days after viral infection, pipetting was performed to give a uniform cell suspension in each well and a 0.5-ml portion of the suspension was separated.
Incubation was continued and, 10 days after viral infection, a uniform cell suspension was produced in the same manner in each well and a 1.5-ml portion thereof was separated. A fresh 2.0-ml portion of the medium free of (or containing) the test substance was added to the well, followed by further incubation.
Fifteen days after viral infection, the cells in each well were suspended uniformly in the same manner in the medium and a 2.0-ml portion of the suspension was separated. A fresh 2.0-ml portion of the medium free of (or containing) the test substance was added to the remaining 0.5 ml of the cell suspension and incubation was continued.
Medium exchange was performed in the same manner 20 days and 25 days after viral infection.
The cell suspensions collected 4 days, 7 days, 10 days, 20 days and 30 days after viral infection were tested for viable cell count and viable cell percentage by trypan blue staining. At the same time, viral antigen-positive cell percentage determination was carried out by immunofluorescence using an anti-HIV antiserum isolated from a healthy carrier of HIV.
The numerical values given each is the mean for the respective two wells on the culture plate. The viable cell count is the total cell count minus the count of dead cells stained with trypan blue. The viable cell percentage is the percentage of viable cells among all the cells including dead cells. The viral antigen-positive cell percentage is the percentage of cells indicating antigen expression as found among all the cells including dead cells.

[2] = in vivo; conditions: mouse, po
[3] = continuous addition, after 4 days
[4] = continuous addition, after 7 days
[5] = continuous addition, after 10 days
[6] = continuous addition, after 20 days
[7] = continuous addition, after 30 days

CC1COc2c(N3CCN(C)CC3)c(F)cc3c(=O)c(C(=O)O)cn1c23 (racemic) [OFLX, (±)-9-fluoro-3-methyl-10-(4-methyl-1-piperazinyl)-7-oxo-2,3-dihydro-7H-pyrido[1,2,3-de][1,4]benzoxazine-6-carboxylic acid]
Viable cell count ([1]; 4-day addition, after 7 days): 63 × 10⁴ cells/ml
Viral antigen-positive cell percentage ([1]; 4-day addition, after 7 days): 63%
Viable cell count ([1]; 4-day addition, after 10 days): 280 × 10⁴ cells/ml
Viral antigen-positive cell percentage ([1]; 4-day addition, after 10 days): 40%
Viable cell count ([1]; 4-day addition, after 20 days): 310 × 10⁴ cells/ml
Viral antigen-positive cell percentage ([1]; 4-day addition, after 20 days): 14%
Viable cell count ([1]; 4-day addition, after 30 days): 320 × 10⁴ cells/ml
Viral antigen-positive cell percentage ([1]; 4-day addition, after 30 days): 3%
Viable cell count [1, 3]: 280 × 10⁴ cells/ml
Viral antigen-positive cell percentage [1, 3]: 78%
Viable cell count [1, 4]: 55 × 10⁴ cells/ml
Viral antigen-positive cell percentage [1, 4]: 72%
Viable cell count [1, 5]: 130 × 10⁴ cells/ml
Viral antigen-positive cell percentage [1, 5]: 43%
Viable cell count [1, 6]: 290 × 10⁴ cells/ml
Viral antigen-positive cell percentage [1, 6]: 9%
Viable cell count [1, 7]: 390 × 10⁴ cells/ml
Viral antigen-positive cell percentage [1, 7]: 6%
viability at 1 µg/mL ([1]; 96 h, read-out: Viable cell percentage, 1 mcg/ml, 4-day addition, after 4 days): 96%
viability at 1 µg/mL ([1]; 96 h, read-out: Viable cell percentage, 1 mcg/ml, continuous addition, after 4 days): 94%
viability at 2.5 µg/mL ([1]; 96 h, read-out: Viable cell percentage, 2.5 mcg/ml, 4-day addition, after 4 days): 96%
viability at 2.5 µg/mL ([1]; 96 h, read-out: Viable cell percentage, 2.5 mcg/ml, continuous addition, after 4 days): 94%
viability at 5 µg/mL ([1]; 96 h, read-out: Viable cell percentage, 5 mcg/ml, 4-day addition, after 4 days): 93%
viability at 5 µg/mL ([1]; 96 h, read-out: Viable cell percentage, 5 mcg/ml, continuous addition, after 4 days): 98%
viability at 10 µg/mL ([1]; 96 h, read-out: Viable cell percentage, 10 mcg/ml, 4-day addition, after 4 days): 94%
viability at 10 µg/mL ([1]; 96 h, read-out: Viable cell percentage, 10 mcg/ml, continuous addition, after 4 days): 95%
viability at 1 µg/mL ([1]; 168 h, read-out: Viable cell percentage, 1 mcg/ml, continuous addition, after 7 days): 55%
viability at 2.5 µg/mL ([1]; 168 h, read-out: Viable cell percentage, 2.5 mcg/ml, continuous addition, after 7 days): 64%
viability at 5 µg/mL ([1]; 168 h, read-out: Viable cell percentage, 5 mcg/ml, continuous addition, after 7 days): 64%
viability at 10 µg/mL ([1]; 168 h, read-out: Viable cell percentage, 10 mcg/ml, continuous addition, after 7 days): 66%
viability at 1 µg/mL ([1]; 240 h, read-out: Viable cell percentage, 1 mcg/ml, continuous addition, after 10 days): 42%
viability at 2.5 µg/mL ([1]; 240 h, read-out: Viable cell percentage, 2.5 mcg/ml, continuous addition, after 10 days): 81%
viability at 5 µg/mL ([1]; 240 h, read-out: Viable cell percentage, 5 mcg/ml, continuous addition, after 10 days): 87%
viability at 10 µg/mL ([1]; 240 h, read-out: Viable cell percentage, 10 mcg/ml, continuous addition, after 10 days): 87%
viability at 1 µg/mL ([1]; 480 h, read-out: Viable cell percentage, 1 mcg/ml, continuous addition, after 20 days): 75%
viability at 2.5 µg/mL ([1]; 480 h, read-out: Viable cell percentage, 2.5 mcg/ml, continuous addition, after 20 days): 94%
viability at 5 µg/mL ([1]; 480 h, read-out: Viable cell percentage, 5 mcg/ml, continuous addition, after 20 days): 95%
viability at 10 µg/mL ([1]; 480 h, read-out: Viable cell percentage, 10 mcg/ml, continuous addition, after 20 days): 92%
viability at 1 µg/mL ([1]; read-out: Viable cell percentage, 1 mcg/ml, 4-day addition, after 7 days): 53%
viability at 1 µg/mL ([1]; read-out: Viable cell percentage, 1 mcg/ml, 4-day addition, after 10 days): 21%
viability at 1 µg/mL ([1]; read-out: Viable cell percentage, 1 mcg/ml, 4-day addition, after 20 days): 87%
viability at 1 µg/mL ([1]; read-out: Viable cell percentage, 1 mcg/ml, 4-day addition, after 30 days): 37%
viability at 1 µg/mL ([1]; read-out: Viable cell percentage, 1 mcg/ml, continuous addition, after 30 days): 33%
viability at 2.5 µg/mL ([1]; read-out: Viable cell percentage, 2.5 mcg/ml, 4-day addition, after 7 days): 67%
viability at 2.5 µg/mL ([1]; read-out: Viable cell percentage, 2.5 mcg/ml, 4-day addition, after 10 days): 67%
viability at 2.5 µg/mL ([1]; read-out: Viable cell percentage, 2.5 mcg/ml, 4-day addition, after 20 days): 95%
viability at 2.5 µg/mL ([1]; read-out: Viable cell percentage, 2.5 mcg/ml, 4-day addition, after 30 days): 97%
viability at 2.5 µg/mL ([1]; read-out: Viable cell percentage, 2.5 mcg/ml, continuous addition, after 30 days): 97%
viability at 5 µg/mL ([1]; read-out: Viable cell percentage, 5 mcg/ml, 4-day addition, after 7 days): 59%
viability at 5 µg/mL ([1]; read-out: Viable cell percentage, 5 mcg/ml, 4-day addition, after 10 days): 77%
viability at 5 µg/mL ([1]; read-out: Viable cell percentage, 5 mcg/ml, 4-day addition, after 20 days): 86%
viability at 5 µg/mL ([1]; read-out: Viable cell percentage, 5 mcg/ml, 4-day addition, after 30 days): 97%
viability at 5 µg/mL ([1]; read-out: Viable cell percentage, 5 mcg/ml, continuous addition, after 30 days): 94%
viability at 10 µg/mL ([1]; read-out: Viable cell percentage, 10 mcg/ml, 4-day addition, after 7 days): 73%
viability at 10 µg/mL ([1]; read-out: Viable cell percentage, 10 mcg/ml, 4-day addition, after 10 days): 85%
viability at 10 µg/mL ([1]; read-out: Viable cell percentage, 10 mcg/ml, 4-day addition, after 20 days): 92%
viability at 10 µg/mL ([1]; read-out: Viable cell percentage, 10 mcg/ml, 4-day addition, after 30 days): 95%
viability at 10 µg/mL ([1]; read-out: Viable cell percentage, 10 mcg/ml, continuous addition, after 30 days): 95%
LD50 [2]: 5450 mg/kg
